The structures appear in SMILES notation. In brackets after ≈: the same amount, converted by molar mass.

For four molecules, MIC results are on record in ChEMBL document CHEMBL5244273, “Tuberculosis: An Overview of the Immunogenic Response, Disease Progression, and Medicinal Chemistry Efforts in the Last Decade toward the Development of Potential Drugs for Extensively Drug-Resistant Tuberculosis Strains” (J Med Chem, 2021).

Holding throughout (format): functional
For assay [1], the system named is Mycobacterium tuberculosis. In words: Antimycobacterial activity against isoniazid, streptomycin, ethambutol and ethionamide resistant Mycobacterium tuberculosis clinical isolate A.
Assay [2] has as its system Mycobacterium tuberculosis. In words: Antimycobacterial activity against isoniazid, streptomycin, rifampicin, ethambutol and ethionamide resistant Mycobacterium tuberculosis clinical isolate G.
The test system of assay [3] is Mycobacterium tuberculosis. In words: Antimycobacterial activity against isoniazid, streptomycin, rifampicin, ethambutol, ethionamide and ofloxacin resistant Mycobacterium tuberculosis clinical isolate H.
Assay [4] concerns Mycobacterium tuberculosis. In words: Antimycobacterial activity against isoniazid and rifampicin resistant Mycobacterium tuberculosis clinical isolate D.
Assay [5] relates to Mycobacterium tuberculosis. In words: Antimycobacterial activity against isoniazid and ethionamide resistant Mycobacterium tuberculosis clinical isolate E.
Assay [6] concerns Mycobacterium tuberculosis. In words: Antimycobacterial activity against isoniazid, streptomycin, and rifampicin resistant Mycobacterium tuberculosis clinical isolate C.
Assay [7] concerns Mycobacterium tuberculosis. In words: Antimycobacterial activity against isoniazid, streptomycin and ethionamide resistant Mycobacterium tuberculosis clinical isolate F.
For assay [8], the system named is Mycobacterium tuberculosis. In words: Antimycobacterial activity against isoniazid and ethionamide resistant Mycobacterium tuberculosis clinical isolate B.
In assay [9] the test system is Mycobacterium tuberculosis. In words: Antimycobacterial activity against Mycobacterium tuberculosis clinical isolate 383-0 harboring wild type gyrA and wild type gyrB.
In assay [10] the test system is Mycobacterium tuberculosis. In words: Antimycobacterial activity against Mycobacterium tuberculosis clinical isolate 427-18 harboring gyrA QRDR c270t (A90V) mutant and wild type gyrB.
The subject of assay [11] is Mycobacterium tuberculosis. In words: Antimycobacterial activity against Mycobacterium tuberculosis clinical isolate 581-17 harboring gyrA QRDR c270t (A90V) mutant and wild type gyrB.
Assay [12] relates to Mycobacterium tuberculosis. In words: Antimycobacterial activity against Mycobacterium tuberculosis clinical isolate 775-0 harboring gyrA QRDR c270t (A90V) mutant and wild type gyrB.
In assay [13] the test system is Mycobacterium tuberculosis. In words: Antimycobacterial activity against Mycobacterium tuberculosis clinical isolate 152-0 harboring wild type gyrA and wild type gyrB.
Assay [14] deals with Mycobacterium tuberculosis. In words: Antimycobacterial activity against Mycobacterium tuberculosis clinical isolate 124-0 harboring wild type gyrA and wild type gyrB.
Assay [15] concerns Mycobacterium tuberculosis. In words: Antimycobacterial activity against Mycobacterium tuberculosis H37Rv harboring wild type gyrA and wild type gyrB.
Assay [16] concerns Mycobacterium tuberculosis. In words: Antimycobacterial activity against Mycobacterium tuberculosis clinical isolate 666-0 harboring wild type gyrA and wild type gyrB.
Assay [17] relates to Mycobacterium tuberculosis. In words: Antimycobacterial activity against Mycobacterium tuberculosis clinical isolate 199-00 harboring gyrA QRDR c270t (A90V) mutant and wild type gyrB.
Assay [18] has as its system Mycobacterium tuberculosis. In words: Antimycobacterial activity against Mycobacterium tuberculosis clinical isolate 742-0 harboring gyrA QRDR a282g (D94G) mutant and wild type gyrB.
Assay [19] deals with Mycobacterium tuberculosis. In words: Antimycobacterial activity against Mycobacterium tuberculosis clinical isolate 410-11 harboring wild type and wild type gyrB.
For assay [20], the system named is Mycobacterium tuberculosis. In words: Antitubercular activity against extensively drug resistant Mycobacterium tuberculosis H37Rv assessed as inhibition of bacterial growth by alamar blue assay. A general note: Alamar Blue is a resazurin reagent that responds to reducing activity.
In assay [21] the test system is Mycobacterium tuberculosis. In words: Antitubercular activity against multidrug resistant Mycobacterium tuberculosis H37Rv assessed as inhibition of bacterial growth by alamar blue assay.

What is called MIC is the lowest concentration that inhibits growth of the organism. Regarding `Oc1ccc(-c2nnc(S)o2)cc1`, the MIC in assay [1] is more than 32 µg/mL; in assay [2] it was more than 32 µg/mL; in assay [3], 2 µg/mL (≈ 10.3 µM); in assay [4] it was more than 32 µg/mL; in assay [5] it was 16 µg/mL (≈ 82.4 µM); in assay [6], 16 µg/mL (≈ 82.4 µM). Further, the MIC in [7] and in assay [8] was 8 µg/mL (≈ 41.2 µM) each time.

Consider `CC(C)(C)n1cc(C(=O)O)c(=O)c2cc(F)c(-c3cccnc3)cc21`, for which the MIC in assay [9] was found to be 2 µg/mL (≈ 5.88 µM); in [10], 1 µg/mL (≈ 2.94 µM); in [11] it was 2 µg/mL (≈ 5.88 µM); in assay [12], 2 µg/mL (≈ 5.88 µM); in [13], 4 µg/mL (≈ 11.8 µM); in assay [14], 1 µg/mL (≈ 2.94 µM). The MIC was found to be 0.5 µg/mL (≈ 1.47 µM) in assay [15]; 4 µg/mL (≈ 11.8 µM) in [16]; 4 µg/mL (≈ 11.8 µM) in assay [17]; 32 µg/mL (≈ 94 µM) in assay [18]; 4 µg/mL (≈ 11.8 µM) in [19].

As to `O=C(Cc1ccccc1F)NNC(=O)c1ccncc1`, the values for the MIC in [20] and in assay [21] were 250 µg/mL (≈ 915 µM) and 62.5 µg/mL (≈ 229 µM), respectively.

In the case of `CC(C)(C)n1cc(C(=O)O)c(=O)c2cc(F)c(-c3ccc(O)cc3)cc21`, the MIC turned out to be 2 µg/mL (≈ 5.63 µM) in assay [9]; 1 µg/mL (≈ 2.81 µM) in assay [10]; 8 µg/mL (≈ 22.5 µM) in assay [11]; 2 µg/mL (≈ 5.63 µM) in assay [12]; 2 µg/mL (≈ 5.63 µM) in assay [13]; 1 µg/mL (≈ 2.81 µM) in assay [14]. Moreover, the MIC in assay [15] is 1 µg/mL (≈ 2.81 µM); in assay [16] it was 2 µg/mL (≈ 5.63 µM); in assay [17], 2 µg/mL (≈ 5.63 µM); in assay [18] it was 2 µg/mL (≈ 5.63 µM); in assay [19], 2 µg/mL (≈ 5.63 µM).
